Data taken from patent US20250214969A1, “PROTEIN DEGRADERS AND USES THEREOF” (Kymera Therapeutics, Inc., priority 2022, published 2025).

Legend:
[1] = molecular target: T1, truncated His-MBP-Tev-KLHDC2 (residues 1-363) (Homo sapiens, UniProt Q9Y2U9); test: KLHDC2 HTRF binding assay; settings: 1 nM KLHDC2 (residues 1-363), fluorescein-labeled diglycine peptide probe
T1 construct: truncated His -MBP-Tev-KLHDC2 (residues 1-363) purified from E. coli; made in house; host or cells: E. coli
T1 sequence (Q9Y2U9 1-363): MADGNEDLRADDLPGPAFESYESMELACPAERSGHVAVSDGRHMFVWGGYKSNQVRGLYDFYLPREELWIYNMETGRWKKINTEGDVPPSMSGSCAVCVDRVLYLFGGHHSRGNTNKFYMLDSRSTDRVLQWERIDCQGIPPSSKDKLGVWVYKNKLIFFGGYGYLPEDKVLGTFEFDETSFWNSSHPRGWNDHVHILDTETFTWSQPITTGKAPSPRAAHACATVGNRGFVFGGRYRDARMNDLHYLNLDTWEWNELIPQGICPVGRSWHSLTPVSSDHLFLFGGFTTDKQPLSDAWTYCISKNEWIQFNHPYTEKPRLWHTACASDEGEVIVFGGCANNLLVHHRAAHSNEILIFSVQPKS

[2] = molecular target: T1, truncated His-MBP-Tev-KLHDC2 (residues 1-363); test: KLHDC2 FP competition binding assay; settings: 15 nM KLHDC2 (residues 1-363), 10 nM fluorescein-labeled diglycine peptide probe, read-out: KLHDC2 binding Human FP: average external IC50

| Structure (SMILES) | IC50 [1] [µM] | IC50 [2] [µM] |
| --- | --- | --- |
| O=C(O)Cn1cc(NC(=O)[C@@H]2C[C@H](C(F)(F)F)CN(c3cccnc3)C2)ccc1=O [I-65] | 0.05 to 0.5 | 0.5 to 5 |
| CCOC(=O)Cn1cc(NC(=O)c2cccc(-c3cnccc3CCCCCCNC(=O)OC(C)(C)C)c2)ccc1=O [I-156] | > 5 | > 5 |
| O=C(O)Cn1cc(NC(=O)[C@@H]2CCCN(c3cccnc3)C2)ccc1=O [I-92] | 0.05 to 0.5 | 0.5 to 5 |
| CS(=O)(=O)Nc1cccc(CC(=O)O)c1 [I-227] | > 5 | > 5 |
| Cc1sc2c(c1C)C(c1ccc(Cl)cc1)=N[C@@H](CC(=O)NCCCCCCc1cncc(-c3cccc(C(=O)Nc4ccc(=O)n(CC(=O)O)c4)c3)c1)c1nnc(C)n1-2 [I-477] | < 0.05 | < 0.05 |
| Nc1ccc2cc(C(=O)Nc3ccc(=O)n(CC(=O)O)c3)ccc2c1 [I-151] | 0.5 to 5 | > 5 |
| CCOC(=O)Cn1cc(NC(=O)c2ccc(CCCCCCNC(=O)OC(C)(C)C)c(-c3cccnc3)c2)ccc1=O [I-150] | > 5 | > 5 |
| COc1cc(-c2ccc(Cl)cc2)ccc1C(=O)Nc1ccc(=O)n(CC(=O)O)c1 [I-134] | 0.05 to 0.5 | 0.5 to 5 |
| COc1cncc(-c2cccc(C(=O)Nc3ccc4c(c3)CC(=O)O4)c2)c1 [I-13] | > 5 | > 5 |
| O=C(O)Cn1cc(NC(=O)c2cccc(-c3cncnc3)c2)ccc1=O [I-201] | 0.5 to 5 | 0.5 to 5 |
| COc1nc2ccccc2cc1C(=O)Nc1ccc(=O)n(CC(=O)O)c1 [I-186] | > 5 | > 5 |
| CSCCC(NC(=O)c1ccccc1C)C(=O)Nc1ccc(=O)n(CC(=O)O)c1 (stereo not shown) [I-208] | > 5 | > 5 |
| COc1cncc(N2CCC[C@H](C(=O)Nc3ccc(=O)n(CC(=O)O)c3)C2)c1 [I-45] | < 0.05 | 0.05 to 0.5 |
| O=C(O)Cc1cc(NC(=O)c2cccc(-c3cccnc3)c2)ccc1F [I-55] | 0.5 to 5 | > 5 |
| O=C(O)Cn1cc(NC(=O)[C@H]2CCCN(c3cccnc3)C2)c(Cl)cc1=O [I-83] | 0.05 to 0.5 | 0.5 to 5 |
| CNc1cncc(N2CCC[C@H](C(=O)Nc3ccc(Cl)c(CC(=O)O)c3)C2)c1 [I-18] | 0.05 to 0.5 | 0.5 to 5 |
| O=C(O)Cn1cc(N2CC[C@]3(CCCN(c4cccnc4)C3)C2=O)ccc1=O [I-15] | 0.05 to 0.5 | > 5 |
| Cn1ccc2c(C(=O)Nc3ccc(=O)n(CC(=O)O)c3)cccc21 [I-145] | 0.5 to 5 | > 5 |
| CC(C)(C)OC(=O)NCCCCCCc1cc(C(=O)Nc2ccc(=O)n(CC(=O)O)c2)cc(-c2cccnc2)c1 [I-165] | < 0.05 | 0.05 to 0.5 |

| Structure (SMILES) | IC50 [1] [µM] | IC50 [2] [µM] |
| --- | --- | --- |
| O=C(O)Cn1cc(NC(=O)[C@@H]2CCCN(c3cccnc3)C2)c(C2CC2)cc1=O [I-58] | 0.5 to 5 | > 5 |
| C[C@@H](C(=O)O)n1cc(NC(=O)c2cccc(-c3cccnc3)c2)ccc1=O [I-71] | > 5 | > 5 |
| CCOC(=O)Cn1cc(NC(=O)c2ccc(CCCCCCN)c(-c3cccnc3)c2)ccc1=O [I-147] | > 5 | > 5 |
| O=C(O)Cn1cc(NC(=O)c2cccc(-c3ccc(C(F)(F)F)cc3)c2)ccc1=O [I-199] | > 5 | > 5 |
| O=C(O)Cn1cc(N2Cc3cccc(-c4cccnc4)c3C2=O)ccc1=O [I-80] | > 5 | > 5 |
| CC1CC(C(=O)Nc2ccc(=O)n(CC(=O)O)c2)CN(c2cccnc2)C1 (stereo not shown) [I-53] | 0.05 to 0.5 | 0.5 to 5 |
| Cc1ccc(C(=O)Nc2ccc(=O)n(CC(=O)O)c2)nc1-c1ccccc1 [I-173] | 0.5 to 5 | > 5 |
| CCc1cc(=O)n(CC(=O)O)cc1NC(=O)c1cccc(-c2cccnc2)c1 [I-54] | 0.05 to 0.5 | 0.5 to 5 |
| O=C(O)Cn1cc(NC(=O)c2cccc(-c3cccnc3)c2Cl)ccc1=O [I-42] | 0.5 to 5 | > 5 |
| CCOC(=O)Cn1cc(NC(=O)c2cccc(-c3cncc(CCCCCCN)c3)c2)ccc1=O [I-159] | > 5 | > 5 |
| Cc1ccc(C(=O)Nc2ccc(=O)n(CC(=O)O)c2)cc1-c1cccnc1 [I-202] | 0.05 to 0.5 | 0.5 to 5 |
| Cc1ccc2cc(C(=O)Nc3ccc(=O)n(CC(=O)O)c3)cnc2c1 [I-189] | > 5 | > 5 |
| O=C(O)Cn1cc(NC(=O)c2ccc(-c3ccccc3)c(Cl)c2)ccc1=O [I-185] | 0.5 to 5 | > 5 |
| O=C(O)Cn1cc(Nc2ncnc3c(-c4cccnc4)cccc23)ccc1=O [I-87] | > 5 | > 5 |
| NCCCCCCc1ccncc1-c1cccc(C(=O)Nc2ccc(=O)n(CC(=O)O)c2)c1 [I-163] | 0.5 to 5 | 0.5 to 5 |
| O=C(O)Cc1cc(NC(=O)[C@@H]2CCCN(c3cccnc3)C2)ccc1Cl [I-30] | > 5 | > 5 |
| CCc1cncc(N2CCC[C@H](C(=O)Nc3ccc(F)c(CC(=O)O)c3)C2)c1 [I-23] | < 0.05 | 0.05 to 0.5 |
| CS(=O)(=O)c1ccc(-c2cccc(C(=O)Nc3ccc(=O)n(CC(=O)O)c3)c2)cc1 [I-192] | > 5 | > 5 |
| O=C(O)Cn1cc(NC(=O)c2cccc(-c3cccs3)c2)ccc1=O [I-172, 2-(2-oxo-5-(3-(thiophen-2-yl)benzamido)pyridin-1 (2H)-yl) acetic acid] | > 5 | > 5 |

The remaining lines, values ahead:

| IC50 [1] [µM] | IC50 [2] [µM] | Structure (SMILES) |
| --- | --- | --- |
| > 5 | > 5 | O=C(O)Cn1cc(-c2cccc3ccccc23)ccc1=O [I-409] |
| > 5 | > 5 | Cc1cc(-c2ccc(=O)n(CC(=O)O)c2)c(C)cc1O [I-360] |
| > 5 | > 5 | O=C(O)Cn1cc(NC(=O)c2cccc(C3CCC3)c2)ccc1=O [I-240] |
| > 5 | > 5 | Cc1ccc(C)c(-c2cn(CC(=O)O)c(=O)cc2C)c1 [I-330] |
| > 5 | > 5 | COc1ccc(-c2cccc(C)c2)cc1CC(=O)O [I-353] |
| > 5 | > 5 | Cc1cc(-c2ccc(=O)n(CC(=O)O)c2)ccc1OCc1ccccc1 [I-323] |
| > 5 | > 5 | O=C(O)Cn1cc(-c2cccc(OCc3ccccc3)c2)ccc1=O [I-300] |
| > 5 | > 5 | N#Cc1cccc(-c2ccc(=O)n(CC(=O)O)c2)c1 [I-324] |
| > 5 | > 5 | O=C(O)Cn1cc(NS(=O)(=O)c2ccccc2)ccc1=O [I-317] |
| > 5 | > 5 | Cc1cccc(Cl)c1C(=O)Nc1ccc(=O)n(CC(=O)O)c1 [I-319] |
| > 5 | > 5 | Cc1ccc(CC(C)(C)O)cc1-c1ccc(=O)n(CC(=O)O)c1 [I-308] |
| > 5 | > 5 | Cc1cccc(C)c1-c1ccc(=O)n(CC(=O)O)c1 [I-404] |
| > 5 | > 5 | O=C(O)Cn1cc(NC(=O)c2cccc(Br)c2)ccc1=O [I-268] |
| > 5 | > 5 | CS(=O)(=O)c1cccc(-c2ccc(=O)n(CC(=O)O)c2)c1 [I-385] |
| > 5 | > 5 | COc1cc(-c2ccc(=O)n(CC(=O)O)c2)ccn1 [I-378] |
| > 5 | > 5 | CCCCC(=O)Nc1cncc(C(=O)Nc2ccc(=O)n(CC(=O)O)c2)c1 [I-241] |
| > 5 | > 5 | CCc1cccc(-c2ccc(=O)n(CC(=O)O)c2)c1 [I-345] |

| IC50 [1] [µM] | IC50 [2] [µM] | Structure (SMILES) |
| --- | --- | --- |
| > 5 | > 5 | Cc1ccccc1OCC(=O)Nc1ccc(=O)n(CC(=O)O)c1 [I-266] |
| > 5 | > 5 | Nc1ccc(-c2ccc(=O)n(CC(=O)O)c2)cc1 [I-332] |
| > 5 | > 5 | CC(C)=Cc1cccc(-c2ccc(=O)n(CC(=O)O)c2)c1 [I-331] |
| > 5 | > 5 | O=C(O)CCN1C(=O)CCc2ccccc21 [I-229] |
| > 5 | > 5 | Cc1ccc(CC(C)C)cc1-c1ccc(=O)n(CC(=O)O)c1 [I-334] |
| 0.5 to 5 | > 5 | O=C(O)Cn1cc(NC(=O)c2cccc(-c3cccc(Cl)c3)c2)ccc1=O [I-293] |
| > 5 | > 5 | O=C(O)Cn1cc(-c2ccc(F)cc2F)ccc1=O [I-370] |
| > 5 | > 5 | O=C(O)Cn1cc(-c2ccc(C(F)(F)F)cc2)ccc1=O [I-372] |
| > 5 | > 5 | Cc1cc(C)c(-c2ccc(=O)n(CC(=O)O)c2)cc1C [I-356] |
| > 5 | > 5 | COc1c(F)cc(-c2ccc(=O)n(CC(=O)O)c2)cc1F [I-347] |
| > 5 | > 5 | O=C(O)Cn1cc(-c2cccc(CO)c2)ccc1=O [I-291] |
| > 5 | > 5 | COc1ncc(-c2ccc(=O)n(CC(=O)O)c2)cc1F [I-365] |
| > 5 | > 5 | O=C(O)Cn1cc(-c2cc(F)c(O)c(F)c2)ccc1=O [I-389] |
| > 5 | > 5 | CC(C(=O)O)N1CCCCC1=O (stereo not shown) [I-232] |
| 0.5 to 5 | > 5 | CC1(C)CCc2c(C(=O)Nc3ccc(=O)n(CC(=O)O)c3)csc2C1 [I-234] |
| > 5 | > 5 | O=C(O)Cn1cc(-c2ccc3[nH]ncc3c2)ccc1=O [I-387] |
